This passage reports Zone diameter and MIC results from ChEMBL document CHEMBL1159138, “Antibacterial evaluation of novel N-Arylimino-1,2,3-dithiazoles and N-arylcyanothioformamides” (1996).

The structures appear in SMILES notation. In brackets after ≈: the same amount, converted by molar mass. Activity calls are given as the source filed them. No cut-off for these calls is given here.

The subject of test [1] is Enterococcus faecalis. Nature of the test: Antibacterial activity was determined against gram positive bacteria - Enterococcus faecalis (ATCC 29212). The test is classed as functional.
Test [2] has as its system Staphylococcus aureus. The test is described as follows: Minimum inhibitory concentration against Staphylococcus aureus(ATCC 9144) was determined using broth dilution method. Format: functional.
Test [3] deals with Staphylococcus aureus. The test is described as follows: Antibacterial activity was determined against gram positive bacteria - Staphylococcus aureus(ATCC 9144). The test is classed as functional.
For test [4], the system named is Listeria monocytogenes. The test is described as follows: Antibacterial activity was determined against gram positive bacteria - Listeria monocytogenes (CIP 82110T). Format: functional.
For test [5], the system named is Listeria monocytogenes. The test is described as follows: Minimum inhibitory concentration against Listeria monocytogenes (CIP 82110T) was determined using broth dilution method. Format: functional.
Test [6] has as its system Streptococcus pyogenes. Nature of the test: Antibacterial activity was determined against gram positive bacteria - Streptococcus pyogenes(ATCC 19165). The test is classed as functional.
In test [7] the test system is Streptococcus pyogenes. The test is described as follows: Minimum inhibitory concentration against Streptococcus pyogenes(ATCC 19165) was determined using broth dilution method. Format: functional.
Test [8] relates to Enterococcus faecalis. Nature of the test: Minimum inhibitory concentration against Enterococcus faecalis (ATCC 29212) was determined using broth dilution method. Format: functional.
The subject of test [9] is Staphylococcus aureus. Nature of the test: Antibacterial activity was determined against gram positive bacteria - Staphylococcus aureus(ATCC 9144); Inactive. The test is classed as functional, organism-based.
The subject of test [10] is Streptococcus pyogenes. Nature of the test: Antibacterial activity was determined against gram positive bacteria - Streptococcus pyogenes(ATCC 19165); Inactive. Format: functional, organism-based.
Test [11] concerns Listeria monocytogenes. Nature of the test: Antibacterial activity was determined against gram positive bacteria - Listeria monocytogenes (CIP 82110T); Inactive. The test is classed as functional, organism-based.
The subject of test [12] is Enterococcus faecalis. The test is described as follows: Antibacterial activity was determined against gram positive bacteria - Enterococcus faecalis (ATCC 29212); Inactive. Format: functional, organism-based.

In the case of `COc1ccc(/N=c2\ssnc2Cl)cc1OC`, the Zone diameter with Enterococcus faecalis [1] is 13 mm; with Staphylococcus aureus [3] it was 13 mm; in the test with Listeria monocytogenes [4] it was 12 mm; in the test on Streptococcus pyogenes [6], 16 mm. The MIC with Staphylococcus aureus [2], in the test on Listeria monocytogenes [5], with Streptococcus pyogenes [7] and in the test on Enterococcus faecalis [8] was 32 µg/mL (≈ 111 µM) throughout.

In the case of `COc1cc(NC(=S)C#N)cc(OC)c1OC`, the Zone diameter entry with Staphylococcus aureus [9], in the test with Streptococcus pyogenes [10], in the test with Listeria monocytogenes [11] and with Enterococcus faecalis [12] was “inactive” throughout.

Take `COc1ccccc1/N=C(/S)C#N`: the Zone diameter result in the test with Staphylococcus aureus [9], in the test on Streptococcus pyogenes [10], in the test with Listeria monocytogenes [11] and with Enterococcus faecalis [12] was “inactive” in each case.

In the case of `COc1cc(C#N)c(/N=C(/S)C#N)cc1OC`, the Zone diameter result in the test with Staphylococcus aureus [9], in the test with Streptococcus pyogenes [10], in the test on Listeria monocytogenes [11] and in the test on Enterococcus faecalis [12] was “inactive” throughout.

With `N#Cc1ccccc1/N=c1\ssnc1Cl`, the Zone diameter worked out at 11 mm in the test with Enterococcus faecalis [1], 11 mm in the test on Staphylococcus aureus [3], 11 mm in the test on Listeria monocytogenes [4] and 15 mm in the test with Streptococcus pyogenes [6]. The MIC in the test on Staphylococcus aureus [2], against Listeria monocytogenes [5], with Streptococcus pyogenes [7] and with Enterococcus faecalis [8] was 32 µg/mL (≈ 126 µM) each time.

`N#CC(=S)Nc1ccc2c(c1)OCCO2`: the Zone diameter result in the test with Staphylococcus aureus [9], in the test with Streptococcus pyogenes [10], in the test with Listeria monocytogenes [11] and in the test on Enterococcus faecalis [12] was “inactive” throughout.

As to `COC(=O)c1ccccc1/N=c1\ssnc1Cl`, the Zone diameter was found to be 16 mm in the test with Enterococcus faecalis [1], 18 mm with Staphylococcus aureus [3], 17 mm with Listeria monocytogenes [4] and 18 mm in the test on Streptococcus pyogenes [6]. Moreover, the MIC with Staphylococcus aureus [2], in the test on Listeria monocytogenes [5], against Streptococcus pyogenes [7] and with Enterococcus faecalis [8] was 32 µg/mL (≈ 112 µM) in each case.

Take `Clc1nss/c1=N\c1ccc2c(c1)OCCO2`: the Zone diameter was 10 mm in the test with Enterococcus faecalis [1], 12 mm with Staphylococcus aureus [3], 10 mm in the test with Listeria monocytogenes [4] and 11 mm in the test on Streptococcus pyogenes [6]. For the same compound, the MIC in the test on Staphylococcus aureus [2], against Listeria monocytogenes [5], in the test on Streptococcus pyogenes [7] and against Enterococcus faecalis [8] was 32 µg/mL (≈ 112 µM) each time.

For `COc1cc(/N=c2\ssnc2Cl)cc(OC)c1OC`, the Zone diameter worked out at 10 mm in the test on Enterococcus faecalis [1], 13 mm with Staphylococcus aureus [3], 17 mm in the test on Listeria monocytogenes [4] and 16 mm in the test with Streptococcus pyogenes [6]. Also, the MIC in the test with Staphylococcus aureus [2], in the test with Listeria monocytogenes [5], with Streptococcus pyogenes [7] and with Enterococcus faecalis [8] was 32 µg/mL (≈ 100 µM) each time.

In the case of `COC(=O)c1cc(OC)c(OC)cc1/N=c1\ssnc1Cl`, the Zone diameter came out at 14 mm in the test on Enterococcus faecalis [1], 17 mm in the test on Staphylococcus aureus [3], 17 mm in the test with Listeria monocytogenes [4] and 14 mm in the test with Streptococcus pyogenes [6]. Also, the MIC against Staphylococcus aureus [2], in the test with Listeria monocytogenes [5], with Streptococcus pyogenes [7] and against Enterococcus faecalis [8] was 32 µg/mL (≈ 92.3 µM) each time.

As to `COc1ccc(/N=c2\ssnc2Cl)cc1`, the Zone diameter in the test on Enterococcus faecalis [1] was found to be 14 mm; in the test on Staphylococcus aureus [3] it was 17 mm; with Listeria monocytogenes [4], 15 mm; with Streptococcus pyogenes [6], 15 mm. Also, the MIC against Staphylococcus aureus [2], in the test on Listeria monocytogenes [5], in the test on Streptococcus pyogenes [7] and against Enterococcus faecalis [8] was 32 µg/mL (≈ 124 µM) each time.

Consider `COc1ccc(NC(=S)C#N)cc1`, for which the Zone diameter result in the test with Staphylococcus aureus [9], in the test with Streptococcus pyogenes [10], in the test on Listeria monocytogenes [11] and in the test with Enterococcus faecalis [12] was “inactive” each time.

In the case of `Clc1nss/c1=N\c1ccccc1`, the Zone diameter was determined as 19 mm with Enterococcus faecalis [1], 29 mm with Staphylococcus aureus [3], 27 mm with Listeria monocytogenes [4] and 26 mm with Streptococcus pyogenes [6]. Besides, the MIC against Staphylococcus aureus [2] came out at 16 µg/mL (≈ 70 µM); with Listeria monocytogenes [5] it was 16 µg/mL (≈ 70 µM); in the test on Streptococcus pyogenes [7], 32 µg/mL (≈ 140 µM); against Enterococcus faecalis [8] it was 16 µg/mL (≈ 70 µM).

With `N#CC(=S)Nc1ccccc1`, the Zone diameter result with Staphylococcus aureus [9], in the test on Streptococcus pyogenes [10], with Listeria monocytogenes [11] and in the test on Enterococcus faecalis [12] was “inactive” each time.

As to `COc1ccc(NC(=S)C#N)cc1OC`, the Zone diameter entry in the test with Staphylococcus aureus [9], in the test on Streptococcus pyogenes [10], in the test with Listeria monocytogenes [11] and in the test with Enterococcus faecalis [12] was “inactive” throughout.

As to `COC(=O)c1ccccc1/N=C(/S)C#N`, the Zone diameter result in the test on Staphylococcus aureus [9], with Streptococcus pyogenes [10], with Listeria monocytogenes [11] and with Enterococcus faecalis [12] was “inactive” each time.

With `COC(=O)c1cc(OC)c(OC)cc1/N=C(/S)C#N`, the Zone diameter result in the test with Staphylococcus aureus [9], in the test on Streptococcus pyogenes [10], in the test with Listeria monocytogenes [11] and with Enterococcus faecalis [12] was “inactive” throughout.

For the compound `N#CC(=S)Nc1ccccc1C#N`, the Zone diameter entry with Staphylococcus aureus [9], in the test on Streptococcus pyogenes [10], with Listeria monocytogenes [11] and with Enterococcus faecalis [12] was “inactive” each time.

For `COc1ccccc1/N=c1\ssnc1Cl`, the Zone diameter with Enterococcus faecalis [1] was determined as 17 mm; in the test with Staphylococcus aureus [3] it was 20 mm; in the test on Listeria monocytogenes [4], 21 mm; with Streptococcus pyogenes [6], 22 mm. Also, the MIC amounted to 32 µg/mL (≈ 124 µM) against Staphylococcus aureus [2], 16 µg/mL (≈ 61.8 µM) in the test with Listeria monocytogenes [5], 32 µg/mL (≈ 124 µM) with Streptococcus pyogenes [7] and 16 µg/mL (≈ 61.8 µM) against Enterococcus faecalis [8].

`COc1cc(C#N)c(/N=c2\ssnc2Cl)cc1OC`: the Zone diameter with Enterococcus faecalis [1] stood at 10 mm; in the test with Staphylococcus aureus [3], 10 mm; in the test with Listeria monocytogenes [4], 10 mm; in the test with Streptococcus pyogenes [6], 13 mm. Further, the MIC with Staphylococcus aureus [2], with Listeria monocytogenes [5], against Streptococcus pyogenes [7] and in the test with Enterococcus faecalis [8] was 32 µg/mL (≈ 102 µM) each time.
